Measurements from patent US20210268056A1, “TAXODIONE FOR ITS USE FOR PROTECTING MUSCLE AND MEAT FROM OXIDATION” (CENTRE NATIONAL DE LA RECHERCHE SCIENTIFIQUE, priority 2018, published 2021).
“Also recorded” adds a separate entry of the source.

What was measured:
[1] = DPPH free radical scavenging assay; format: biochemical
Description: Radical scavenging activity was evaluated using DPPH according to the method described by Morel et al. with some modifications (Morel, Landreau, Nguyen, Derbre, Grellier, Pape, et al., 2012). Tested extracts and standards were diluted in absolute ethanol at different concentrations. Ethanol was used as blank, and 10, 25, 50 and 75 μM Trolox were used as calibration solutions. Tested compounds or standard solutions (100 μL) were placed in 96-well plates in triplicate for each tested concentration. Absolute ethanol was added (75 μL). The reaction was initiated by adding 25 μL of freshly prepared DPPH solution (1 mM) to obtain a final volume of 200 μL/well. After 30 min in the dark at room temperature, absorbance was determined at 550 nm with a UVMAX Molecular Devices microtiter plate reader (MDS Inc., Toronto, Canada). Results were expressed as the effective concentration at which 50% of DPPH radicals were scavenged (EC50 in μg/mL). The results are the mean±standard deviation (SD) of three independent experiments (three wells per concentration for each experiment).

human myoblasts [2] = assay: H2O2-induced cell death in human myoblasts (Muse Count and Viability Kit); format: cell-based
Description: The quadriceps muscle biopsy was from one healthy adult (AFM-BTR “Banque de tissus pour la recherche”). Myoblasts were purified from the muscle biopsy and were cultured on collagen-coated dishes in DMEM/F12 medium with 10% foetal bovine serum (FBS), 0.1% Ultroser G and 1 ng/ml of human basic fibroblast growth factor (proliferation medium), as previously described (Kitzmann, Bonnieu, Duret, Vernus, Barro, Laoudj-Chenivesse, et al., 2006). For cell differentiation, confluent cells were cultured in DMEM with 4% FBS for 3-5 days (differentiation medium).
Myoblasts: Myoblasts were seeded in 35 mm collagen-coated dishes, cultured in proliferation medium, pre-incubated or not with the tested compounds for 24 h and then incubated or not with a lethal concentration of hydrogen peroxide (H2O2), a strong pro-oxidant/pro-apoptotic compound, for 24 h. […] Dead myoblasts were identified by staining with the Muse® Count and Viability Kit, and ROS was quantified with the Muse® Oxidative Stress Kit, followed by analysis with a Fluorescence Activated Cell Sorting (FACS) Muse apparatus (Millipore, France). […] As myotubes are too big for FACS analysis, H2O2 effect was determined by quantifying lactate dehydrogenase (LDH) activity, which is increased in the culture medium during tissue damage, using the LDH Cytotoxic Kit (ThermoFisher, France). […]

human myotubes [3] = assay: ROS in myotubes (CellRox probe, TECAN); format: cell-based; conditions: TX 0.5 μg/mL 24 h, then H2O2 (550 μM) 24 h, FIG. 4E
Leishmania = conditions: Naman 2016; Zhang 2012; Machumi 2010; Bufalo 2016; cited from earlier work
[4] = test system: MOLT-4, HT-29, and MCF-7 cells; conditions: Mirzaei 2017; cited from earlier work
CHOP gene = assay: RT-qPCR of CHOP gene expression in myoblasts; format: cell-based, human
Description: Myoblasts were seeded in 35 mm collagen-coated dishes, cultured in proliferation medium, pre-incubated or not with TX for 24 h, and then incubated or not with a sub-lethal concentration of H2O2 (80 μM; to avoid interference with dead cells) for 24 h. Then, total RNA was isolated from muscle cells using the NucleoSpin RNA II Kit (Macherey-Nagel, Hoerdt, France). The RNA concentration of each sample was measured with an Eppendorf BioPhotometer. cDNA was prepared using the Verso cDNA Synthesis Kit (Thermo Scientific, Ilkirch, France).
The expression of the CHOP (target) and RPLPO (control) genes was analysed by quantitative polymerase chain reaction (qPCR) on a LightCycler apparatus (Roche Diagnostics, Meylan, France), as previously described (El Haddad, Notarnicola, Evano, El Khatib, Blaquiere, Bonnieu, et al., 2017), using the following primers: […]

fungi = conditions: Kusumoto 2010; Machumi 2010; Bufalo 2016; cited from earlier work
[5] = test system: Walker carcinosarcoma 256; conditions: Kupchan 1968; cited from earlier work
acetylcholinesterase = acetylcholinesterase (Homo sapiens, UniProt P22303); conditions: Kuzma 2016; cited from earlier work
acetylcholinesterase, sequence (P22303 32-614): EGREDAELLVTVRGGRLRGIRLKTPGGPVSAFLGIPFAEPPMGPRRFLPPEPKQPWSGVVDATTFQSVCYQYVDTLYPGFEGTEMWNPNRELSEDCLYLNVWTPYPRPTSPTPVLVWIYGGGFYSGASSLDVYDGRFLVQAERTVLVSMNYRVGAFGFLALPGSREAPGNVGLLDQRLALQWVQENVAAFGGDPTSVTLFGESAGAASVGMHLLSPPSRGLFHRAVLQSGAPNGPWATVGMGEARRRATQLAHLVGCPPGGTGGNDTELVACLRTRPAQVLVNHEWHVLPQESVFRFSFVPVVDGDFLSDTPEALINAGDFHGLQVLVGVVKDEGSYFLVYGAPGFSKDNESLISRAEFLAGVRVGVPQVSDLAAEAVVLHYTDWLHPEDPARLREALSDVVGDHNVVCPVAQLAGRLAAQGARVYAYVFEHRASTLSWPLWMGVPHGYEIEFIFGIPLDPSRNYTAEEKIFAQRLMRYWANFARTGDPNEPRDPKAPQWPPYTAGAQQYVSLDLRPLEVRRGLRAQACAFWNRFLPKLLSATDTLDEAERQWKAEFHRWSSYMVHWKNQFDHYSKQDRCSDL

protein phosphatase 2C = conditions: Kusumoto 2014; cited from earlier work
[6] = Kolak 2009; cited from earlier work
bacteria = conditions: Machumi 2010; Bufalo 2016; cited from earlier work
human myotubes [7] = assay: H2O2 toxicity in myotubes by lactate dehydrogenase (LDH) activity; format: cell-based; conditions: TX 0.5 μg/mL 24 h, then H2O2 (550 μM) 24 h, FIG. 4D
Description: (§1) Myoblasts: Myoblasts were seeded in 35 mm collagen-coated dishes, cultured in proliferation medium, pre-incubated or not with the tested compounds for 24 h and then incubated or not with a lethal concentration of hydrogen peroxide (H2O2), a strong pro-oxidant/pro-apoptotic compound, for 24 h. The optimal H2O2 concentration was the concentration required to kill between 30% and 50% of all cells and was established before each experiment. In general, myoblasts were incubated with 120 μM H2O2. Dead myoblasts were identified by staining with the Muse® Count and Viability Kit, and ROS was quantified with the Muse® Oxidative Stress Kit, followed by analysis with a Fluorescence Activated Cell Sorting (FACS) Muse apparatus (Millipore, France). Myotubes: Myoblasts were seeded in 35 mm collagen-coated dishes, cultured in proliferation medium until confluence, and then switched to differentiation medium for 4 days. At day 2, cells were incubated with TX for 24 h prior to incubation with H2O2 for 24 h. […] As myotubes are too big for FACS analysis, H2O2 effect was determined by quantifying lactate dehydrogenase (LDH) activity, which is increased in the culture medium during tissue damage, using the LDH Cytotoxic Kit (ThermoFisher, France). In parallel, myotube cultures were loaded with a ROS-fluorescent probe (CellRox) followed by fluorescence quantification using a TECAN spectrophotometer.

colon cancer cells = conditions: isolated in mixture with [9]-shogaol from Rosmarinus officinalis leaves; Borras Linares 2015; cited from earlier work
HIV-1 protease = molecular target: T1, HIV-1 protease (Human immunodeficiency virus type 1 group M subtype B, UniProt P04585); conditions: Ahmed 1999; cited from earlier work
T1 construct: HIV-1 protease

microbes = conditions: Zhang 2012; Kuzma 2012; cited from earlier work
termites = conditions: Kusumoto 2009; cited from earlier work
protozoa = conditions: Mothana 2014; Kuzma 2017; cited from earlier work
γH2AX = assay: Western blot of phosphorylated γH2AX in myoblasts; format: cell-based, human
Description: Myoblasts were seeded in 35 mm collagen-coated dishes, cultured in proliferation medium, pre-incubated or not with TX for 24 h and then incubated or not with 80 μM H2O2 for 24 h. Protein extracts were separated by SDS-PAGE gel electrophoresis and transferred to nitrocellulose membranes, blocked at room temperature with Odyssey blocking buffer (Eurobio, France) and probed with the rabbit polyclonal anti-Histone H1.4 (Sigma-Aldrich; 1/5000) and rabbit polyclonal anti-gamma H2AX (Cell signalling; 1/3000) antibodies followed by IRDye® 680RD and IRDye® 800RD secondary antibodies (Eurobio, France). Fluorescence was quantified with the Odyssey software. Data were normalized to […] expression.

human myoblasts [8] = assay: ROS quantification in myoblasts (Muse Oxidative Stress Kit, FACS); format: cell-based
Description: as §1

Plasmodium = conditions: Zhang 2012; cited from earlier work

**Q.** With O=C(/C=C/c1ccc(O)c(O)c1)O[C@H](Cc1ccc(O)c(O)c1)C(=O)O [rosmarinic acid] as the compound, how does the “DPPH free radical scavenging activity” value [1] read?
**A.** strong antioxidant capacities

**Q.** Which “DPPH free radical scavenging activity” value [1] does the source give for CC(C)c1cc2c(c(O)c1O)[C@@]1(C(=O)O)CCCC(C)(C)[C@@H]1CC2 [CA, carnosic acid] here?
**A.** strong antioxidant capacities

**Q.** For CC(C)c1cc2c(c(O)c1O)[C@@]13CCCC(C)(C)[C@@H]1C[C@@H]2OC3=O [CO, carnosol], which “DPPH free radical scavenging activity” value [1] is on record?
**A.** strong antioxidant capacities

**Q.** Which “protection against H2O2-induced cell death” value (human myoblasts [2]; pre-incubation 24 h prior to lethal H2O2 (120 μM), Tempol 50 μM, RW all tested concentrations, FIG. 1A) does the source give for CC1(C)CC(O)CC(C)(C)N1[O] [Tempol, reference compound] here?
**A.** protected human myoblasts efficiently

**Q.** For CC(C)C1=CC2=CC(=O)[C@H]3C(C)(C)CCC[C@]3(C)C2=C(O)C1=O [taxodione, (4bS,8aS)-4b,5,6,7,8,8a-hexahydro-4-hydroxy-2-isopropyl-4b,8,8-trimethylphenanthrene-3,9-dione], which “ROS level (CellRox) after H2O2” value (human myotubes [3]) is on record?
**A.** significantly reduced H2O2 effects

**Q.** What about the anti-leishmanial activity (Leishmania) of the same compound?
**A.** anti-leishmanial,; also recorded: anti-leishmanial

**Q.** And the “anti-proliferative activity in MOLT-4, HT-29, and MCF-7 cells” value [4]?
**A.** anti-proliferative

**Q.** What about the “level of CHOP mRNA after H2O2” value (CHOP gene; TX 0.5 μg/mL 24 h, then 80 μM H2O2 24 h, FIG. 4C) of the same compound?
**A.** reduced H2O2 effects

**Q.** What about the “level of CHOP mRNA, TX alone” value (CHOP gene; without H2O2) of the same compound?
**A.** did not have any effect

**Q.** And the antifungal activity (fungi)?
**A.** Antifungal effects

**Q.** And the “inhibitory activity against Walker carcinosarcoma 256 in rats” value [5]?
**A.** inhibitory activity

**Q.** What about the acetylcholinesterase inhibition (acetylcholinesterase) of the same compound?
**A.** inhibition

**Q.** What about the “protein phosphatase 2C inhibitor” value (protein phosphatase 2C) of the same compound?
**A.** 2C inhibitor,

**Q.** What about the “activity in O2 assay” value [6] of the same compound?
**A.** not active in O2 assay

**Q.** What about the antibacterial activity (bacteria) of the same compound?
**A.** antibacterial

**Q.** What about the “LDH activity after H2O2” value (human myotubes [7]) of the same compound?
**A.** significantly reduced H2O2 effects

**Q.** And the “DPPH free radical scavenging activity” value [1]?
**A.** low

**Q.** And the anti-proliferative activity (colon cancer cells)?
**A.** anti-proliferative

**Q.** And the “antioxidant activity (H2O2-induced cell death) compared with CA and CO” value (human myoblasts [2]; all tested concentrations, FIG. 3B)?
**A.** significantly more efficient

**Q.** What about the “HIV-1 protease inhibitory activity” value (HIV-1 protease) of the same compound?
**A.** low HIV-1 protease

**Q.** And the antimicrobial activity (microbes)?
**A.** antimicrobial

**Q.** What about the “Antitermitic activity (antifeedant effect)” value (termites) of the same compound?
**A.** Antitermitic activity

**Q.** What about the antiprotozoal activity (protozoa) of the same compound?
**A.** weak antiprotozoal

**Q.** What about the “level of γH2AX protein after H2O2” value (γH2AX; TX 0.5 μg/mL 24 h, then 80 μM H2O2 24 h, FIG. 4B) of the same compound?
**A.** reduced H2O2 effects

**Q.** What about the “level of γH2AX protein, TX alone” value (γH2AX; without H2O2) of the same compound?
**A.** did not have any effect

**Q.** What about the “level of ROS after H2O2” value (human myoblasts [8]; TX 0.5 μg/mL 24 h, then H2O2 24 h, FIG. 4A) of the same compound?
**A.** reduced H2O2 effects

**Q.** What about the “level of ROS, TX alone” value (human myoblasts [8]; without H2O2) of the same compound?
**A.** did not have any effect

**Q.** What about the anti-plasmodial activity (Plasmodium) of the same compound?
**A.** anti-plasmodial
